Measurements published in patent US20230218639A1, “USE OF OXYGENATED CHOLESTEROL SULFATES FOR TREATING NEUROLOGICAL CONDITIONS, NEURODEGENERATIVE DISEASES, AND ADDICTION” (Durect Corporation, priority 2020, published 2023).

How the values were obtained:
DNMT1/3a/3b = test: Enzyme kinetic study, DNMT1/3a/3b activities overall; assay type: biochemical; details: for effect on enzymatic activities: controls
Procedure: (§1) For the DNMT1 activity assay, the substrate solution, 0.001 mg/ml Poly(dI-dC):Poly(dI-dC) in 50 mM Tris-HCl, pH 7.5, 50 mM NaCl, 5 mM EDTA, 5 mM DTT, 1 mM PMSF, 5% glycerol, 0.01% Brij35, 1% DMSO was used. For the DNMT3a/3b activity assay, 0.0075 mg/ml Lambda DNA in 50 mM Tris-HCl, pH 7.5, 50 mM NaCl, 5 mM EDTA, 5 mM DTT, 1 mM PMSF, 5% glycerol, 1% DMSO, was used. The indicated DNMT1, DNMT3a, or DNMT3b was added to the appropriate substrate solution and gently mixed. […] The mixtures were first incubated for 15 min, then ^3H-SAM was added to the reaction mixture to initiate the reaction, and the mixture was incubated for 60 min at 30° C. Following incubation, the reaction mixture was finally transferred to filter-paper for detection of radioactivity counts.

DNMT3a = DNMT3a (Homo sapiens, UniProt Q9Y6K1); test: DNMT3a activity assay (Lambda DNA substrate, ^3H-SAM); assay type: biochemical
DNMT3a, sequence (Q9Y6K1 whole entry, looked up): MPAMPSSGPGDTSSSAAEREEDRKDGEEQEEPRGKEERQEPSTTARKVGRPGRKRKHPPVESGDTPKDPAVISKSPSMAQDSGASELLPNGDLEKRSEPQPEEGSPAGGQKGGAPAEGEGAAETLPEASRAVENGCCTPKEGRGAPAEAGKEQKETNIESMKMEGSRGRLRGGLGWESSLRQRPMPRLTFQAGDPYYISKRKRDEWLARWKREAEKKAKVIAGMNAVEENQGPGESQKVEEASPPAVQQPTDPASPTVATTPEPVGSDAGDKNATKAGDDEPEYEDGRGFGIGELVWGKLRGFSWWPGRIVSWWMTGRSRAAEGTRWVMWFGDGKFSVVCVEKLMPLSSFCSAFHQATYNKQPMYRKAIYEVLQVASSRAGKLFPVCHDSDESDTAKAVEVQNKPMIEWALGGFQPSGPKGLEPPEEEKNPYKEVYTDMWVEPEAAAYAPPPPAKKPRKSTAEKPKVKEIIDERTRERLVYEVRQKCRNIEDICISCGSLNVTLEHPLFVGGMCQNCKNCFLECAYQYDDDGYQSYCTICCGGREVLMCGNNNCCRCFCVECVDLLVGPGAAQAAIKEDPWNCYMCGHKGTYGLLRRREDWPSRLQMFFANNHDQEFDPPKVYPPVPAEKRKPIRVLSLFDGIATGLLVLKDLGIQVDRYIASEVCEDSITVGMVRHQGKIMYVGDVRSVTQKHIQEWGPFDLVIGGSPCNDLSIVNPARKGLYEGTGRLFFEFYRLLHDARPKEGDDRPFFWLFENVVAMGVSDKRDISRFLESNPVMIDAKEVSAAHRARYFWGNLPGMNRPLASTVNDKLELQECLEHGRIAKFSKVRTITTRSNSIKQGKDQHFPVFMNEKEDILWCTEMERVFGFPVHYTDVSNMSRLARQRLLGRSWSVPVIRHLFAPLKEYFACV
Procedure: as §1

DNMT1 = DNMT1 (Homo sapiens, UniProt P26358); test: DNMT1 activity assay (Poly(dI-dC) substrate, ^3H-SAM); assay type: biochemical; details: for EC50: read-out: EC50, activation of DNMT-1
DNMT1, sequence (P26358 whole entry): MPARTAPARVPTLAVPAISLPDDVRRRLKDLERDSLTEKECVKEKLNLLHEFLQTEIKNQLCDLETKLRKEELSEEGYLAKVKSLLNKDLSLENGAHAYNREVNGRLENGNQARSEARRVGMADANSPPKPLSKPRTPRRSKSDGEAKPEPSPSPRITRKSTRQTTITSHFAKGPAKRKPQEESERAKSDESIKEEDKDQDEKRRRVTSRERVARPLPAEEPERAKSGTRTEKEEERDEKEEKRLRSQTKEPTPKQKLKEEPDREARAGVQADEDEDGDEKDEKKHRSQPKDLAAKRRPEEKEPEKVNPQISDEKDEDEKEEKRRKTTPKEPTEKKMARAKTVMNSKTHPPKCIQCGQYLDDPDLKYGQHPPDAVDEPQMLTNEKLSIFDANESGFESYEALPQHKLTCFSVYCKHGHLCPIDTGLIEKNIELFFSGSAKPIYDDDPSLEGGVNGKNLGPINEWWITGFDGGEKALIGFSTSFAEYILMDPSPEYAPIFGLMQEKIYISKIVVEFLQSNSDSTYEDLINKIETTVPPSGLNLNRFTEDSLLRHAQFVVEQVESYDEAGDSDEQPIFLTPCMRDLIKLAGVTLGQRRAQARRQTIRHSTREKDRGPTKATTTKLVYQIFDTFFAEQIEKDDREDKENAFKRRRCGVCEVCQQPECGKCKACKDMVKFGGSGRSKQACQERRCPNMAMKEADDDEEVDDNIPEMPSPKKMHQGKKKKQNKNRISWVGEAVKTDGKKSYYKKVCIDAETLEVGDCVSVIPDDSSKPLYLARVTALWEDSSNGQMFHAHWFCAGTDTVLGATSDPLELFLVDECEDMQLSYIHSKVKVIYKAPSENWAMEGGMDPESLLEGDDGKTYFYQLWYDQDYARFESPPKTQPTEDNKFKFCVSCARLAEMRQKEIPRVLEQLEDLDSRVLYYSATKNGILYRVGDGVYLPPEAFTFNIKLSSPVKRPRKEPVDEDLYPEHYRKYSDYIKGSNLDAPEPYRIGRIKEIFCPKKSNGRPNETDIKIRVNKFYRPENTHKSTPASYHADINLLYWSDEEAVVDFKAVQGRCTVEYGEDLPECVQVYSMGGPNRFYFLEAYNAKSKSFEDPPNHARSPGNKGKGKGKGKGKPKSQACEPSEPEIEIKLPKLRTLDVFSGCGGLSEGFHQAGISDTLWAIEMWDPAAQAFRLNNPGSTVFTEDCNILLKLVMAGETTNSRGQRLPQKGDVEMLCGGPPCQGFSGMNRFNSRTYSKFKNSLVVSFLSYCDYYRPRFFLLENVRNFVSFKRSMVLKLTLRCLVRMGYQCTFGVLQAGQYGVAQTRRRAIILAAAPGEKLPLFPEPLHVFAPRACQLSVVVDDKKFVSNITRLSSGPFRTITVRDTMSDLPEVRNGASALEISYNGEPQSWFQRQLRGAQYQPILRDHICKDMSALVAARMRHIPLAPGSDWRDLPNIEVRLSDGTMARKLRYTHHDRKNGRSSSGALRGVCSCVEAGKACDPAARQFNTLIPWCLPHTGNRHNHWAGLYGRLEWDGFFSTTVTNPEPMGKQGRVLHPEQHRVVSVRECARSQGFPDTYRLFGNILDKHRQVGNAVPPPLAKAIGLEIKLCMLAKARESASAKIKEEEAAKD
Procedure: as §1

[1] = Metabolite profiling of plasma and feces, oral dose; assay type: in vivo, rats
Procedure: Radiolabeled components in plasma and feces extracts were profiled and identified using radio-high performance liquid chromatography (HPLC) and high performance liquid chromatography/mass spectrometry (HPLC/MS) methods.
Plasma pools were prepared for Group 1 (75 mg/kg, [^14C]-25HC3S) samples collected at 2, 4, and 6 hours post-dose. […] One metabolite M29 was identified as 25-hydroxycholesterol with 37% ROI and a concentration of 1233 ng-equiv./g.
Feces pools were prepared for Group 2 (75 mg/kg, [^14C]-25HC3S) samples collected from 0 to 24, 24 to 48, 48 to 72, 72 to 96, 96 to 120, 120 to 144, and 144 to 168 hours post-dose. A total of eleven metabolites were identified. None of the metabolites were present at ≥5% of dose. Metabolites present at 2-5% of dose were M1 (4.5% of total dose and 1%-69% ROI), M3 (4.6% of total dose and 1%-44% ROI), M4 (2.0% of total dose and 0%-10% ROI), M8 (3.1% of total dose and 1%-46% ROI), […], and M30 (3.3% of total dose and 0%-5% ROI).

[2] = Metabolite profiling of plasma, urine, feces, intravenous dose; assay type: in vivo, Sprague Dawley rats; details: intravenous 10 mg/kg
Procedure: Nine male Sprague Dawley rats (Group 1) were designated for the pharmacokinetic phase, 3 male Sprague Dawley rats (Group 2) for the excretion mass balance phase, and 7 male Sprague Dawley rats (Group 3) and 9 male Long Evans rats (Group 4) for the tissue distribution phase. All animals received a single intravenous dose of [^14C]-25HC3S at 10 mg/kg and a target radioactivity of 225 μCi/kg. Blood samples were collected from all Group 1 animals at approximately 0.083, 0.25, 0.5, 1, 2, 4, 8, 12, 24, 48, and 72 hours post-dose. Urine and feces were collected from all Group 2 animals periodically through 168 hours post-dose. […] Following blood collection, animals were euthanized by CO2 inhalation and carcasses frozen in a dry ice/hexane bath for processing by quantitative whole body autoradiography. Whole blood, plasma, urine, feces, cage rinse, and cage wash were analyzed for total radioactivity by liquid scintillation counting.

DNMT3b = DNMT3b (Homo sapiens, UniProt Q9UBC3); test: DNMT3b activity assay (Lambda DNA substrate, ^3H-SAM); assay type: biochemical
Procedure: as §1

[3] = Sprague Dawley, rat, in vivo, po, 75 mg/kg

CC(C)CCC[C@@H](C)[C@H]1CC[C@H]2[C@@H]3CC=C4C[C@@H](OS(=O)(=O)O)CC[C@]4(C)[C@H]3CC[C@]12C [Xol3S, 5-cholesten-3β-ol, 3-sulfate, reference compound]
effect on enzymatic activities (DNMT1/3a/3b): did not significantly affect | IC50 (DNMT3a): 82 µM

C[C@H](CCCC(C)(C)O)[C@H]1CC[C@H]2[C@@H]3CC=C4C[C@@H](O)CC[C@]4(C)[C@H]3CC[C@]12C [25HC, 25-Hydroxycholesterol, reference compound]
activation of DNMT-1 activity (DNMT1): 8 fold | EC50 (DNMT1): 3.5 µM | % of total dose in feces [1, 3]: 1.9 % of total dose | ROI in feces [1, 3]: 0-2% | relative observed intensity (ROI) in plasma ([1]; Sprague Dawley, rat, in vivo, po, 75 mg/kg, 2 h): 37% | detection in plasma, urine, or feces samples [2]: Neither desmosterol sulfate nor 25-hydroxycholesterol was detected

Nc1ncnc2c1ncn2[C@@H]1O[C@H](CSCC[C@H](N)C(=O)O)[C@@H](O)[C@H]1O [SAH, S-adenosyl homocysteine]
inhibition at 1 µM (DNMT1; read-out: inhibition of DNMT1 activity): 95%

CC(C)CCC[C@@H](C)[C@H]1CC[C@H]2[C@@H]3CC=C4C[C@@H](O)CC[C@]4(C)[C@H]3CC[C@]12C [Xol, Cholesterol]
effect on enzymatic activities (DNMT1/3a/3b): did not significantly affect

desmosterol sulfate
presence in plasma or feces samples ([1]; oral 75 mg/kg): not found | detection in plasma, urine, or feces samples [2]: Neither desmosterol sulfate nor 25-hydroxycholesterol was detected

C[C@@H](CO)CCC[C@@H](C)[C@H]1CC[C@H]2[C@@H]3CC=C4C[C@@H](O)CC[C@]4(C)[C@H]3CC[C@]12C [27HC, 27-Hydroxycholesterol]
EC50 (DNMT1): 33 µM | effect on other enzymes (DNMT1/3a/3b; enzymes other than DNMT-1): no effect

CC(CO)CCC[C@@H](C)[C@H]1CC[C@H]2[C@@H]3CC=C4C[C@@H](OS(=O)(=O)O)CC[C@]4(C)[C@H]3CC[C@]12C (stereo partly drawn) [27HC3S, 5-cholesten-3β, 27-diol 3-sulfate]
IC50 (DNMT1): 3.58 µM | IC50 (DNMT3a): 8.88 µM | IC50 (DNMT3b): 2.68 µM
